The results in this text go back to patent US10150760B2, “Compounds for use in preparing heterocyclic triazole agonists of the APJ receptor” (AMGEN INC., priority 2016, dated 2018).

Broadly, the EC50 is the midpoint of the concentration-response curve.

human APJ receptor, sequence (P35414 whole entry): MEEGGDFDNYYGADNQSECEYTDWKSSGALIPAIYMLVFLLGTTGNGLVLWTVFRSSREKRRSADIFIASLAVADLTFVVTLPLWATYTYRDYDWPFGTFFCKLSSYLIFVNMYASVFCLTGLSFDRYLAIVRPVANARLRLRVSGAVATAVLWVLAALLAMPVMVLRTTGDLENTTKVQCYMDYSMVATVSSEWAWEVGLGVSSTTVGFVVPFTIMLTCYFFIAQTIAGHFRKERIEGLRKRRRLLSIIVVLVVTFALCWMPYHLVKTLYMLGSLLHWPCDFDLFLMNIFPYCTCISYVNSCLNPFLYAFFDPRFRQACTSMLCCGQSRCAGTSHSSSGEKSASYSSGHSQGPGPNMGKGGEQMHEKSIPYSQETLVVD

This assay has as its target human APJ receptor (Homo sapiens (Human), UniProt P35414). Put plainly: [35S]GTPγS binding assay on membranes from CHO cells stably expressing human APJ receptor. As to conditions: read-out: Activity hAPJ SPA EC50 IP. Format: biochemical. The procedure, abridged:
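Membranes from CHO cells stably expressing human APJ incubated with ligand, 0.2 nM [35S]GTPγS and WGA SPA beads in HEPES pH 7.5 with 5 mM MgCl2, 200 mM NaCl, 3 μM GDP, 90 min at RT. Nonspecific binding defined with 100 μM GTPγS; EC50 by non-linear regression.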
Background: GTPγS is a poorly hydrolysed GTP analogue; its binding reports G protein activation.
Regarding `COc1ncnc(OC)c1-n1c(NS(=O)(=O)[C@@H](C)[C@H](C)c2ncc(Cl)cn2)nnc1[C@@H]1CCCCO1` (single isomer, unassigned) [Example 191.0, (2S,3R)-3-(5-chloropyrimidin-2-yl)-N-(4-(4,6-dimethoxypyrimidin-5-yl)-5-((S)-tetrahydro-2H-pyran-2-yl)-4H-1,2,4-triazol-3-yl)butane-2-sulfonamide or (2S,3R)-3-(5-chloropyrimidin-2-yl)-N-(4-(4,6-dimethoxypyrimidin-5-yl)-5-((R)-tetrahydro-2H-pyran-2-yl)-4H-1,2,4-triazol-3-yl)butane-2-sulofnamide], the concentration for a half-maximal effect (EC50) came to 0.0041 µM.

Regarding `COc1ncnc(OC)c1-n1c(NS(=O)(=O)[C@@H](C)[C@H](C)c2ncc(Cl)cn2)nnc1[C@@H]1CCCCO1` (single isomer, unassigned) [Example 192.0, (2S,3R)-3-(5-chloropyrimidin-2-yl)-N-(4-(4,6-dimethoxypyrimidin-5-yl)-5-((S)-tetrahydro-2H-pyran-2-yl)-4H-1,2,4-triazol-3-yl)butane-2-sulfonamide or (2S,3R)-3-(5-chloropyrimidin-2-yl)-N-(4-(4,6-dimethoxypyrimidin-5-yl)-5-((R)-tetrahydro-2H-pyran-2-yl)-4H-1,2,4-triazol-3-yl)butane-2-sulfonamide], the EC50 came to 0.001 µM.

Consider `COc1ncnc(OC)c1-n1c(NS(=O)(=O)[C@@H](C)[C@H](C)c2ncc(Cl)cn2)nnc1[C@@H]1COCCO1` (single isomer, unassigned) [Example 196.0, (2S,3R)-3-(5-chloropyrimidin-2-yl)-N-(4-(4,6-dimethoxypyrimidin-5-yl)-5-((R)-1,4-dioxan-2-yl)-4H-1,2,4-triazol-3-yl)butane-2-sulfonamide or (2S,3R)-3-(5-chloropyrimidin-2-yl)-N-(4-(4,6-dimethoxypyrimidin-5-yl)-5-((S)-1,4-dioxan-2-yl)-4H-1,2,4-triazol-3-yl)butane-2-sulfonamide], for which the EC50 amounted to 0.13 µM.

For `COc1cccc(OC)c1-n1c(NS(=O)(=O)[C@@H](C)[C@H](C)c2ncc(C)cn2)nnc1[C@H]1CN(S(C)(=O)=O)CCO1` (single isomer, unassigned) [Example 230.0], the EC50 stood at 0.45 µM.

For `COc1cccc(OC)c1-n1c(NS(=O)(=O)[C@@H](C)[C@H](C)c2ncc(C)cn2)nnc1[C@H]1CN(S(C)(=O)=O)CCO1` (single isomer, unassigned) [Example 231.0], the EC50 amounted to 0.88 µM.

In the case of `COc1ncnc(OC)c1-n1c(NS(=O)(=O)[C@@H](C)[C@H](OC)c2ncc(C)cn2)nnc1[C@@H]1Cc2ccccc2O1` (single isomer, unassigned) [Example 232.0, (1R,2S)-N-(5-((S)-2,3-dihydrobenzofuran-2-yl)-4-(4,6-dimethoxypyrimidin-5-yl)-4H-1,2,4-triazol-3-yl)-1-methoxy-1-(5-methylpyrimidin-2-yl)propane-2-sulfonamide or (1R,2S)-N-(5-((R)-2,3-dihydrobenzofuran-2-yl)-4-(4,6-dimethoxypyrimidin-5-yl)-4H-1,2,4-triazol-3-yl)-1-methoxy-1-(5-methylpyrimidin-2-yl)propane-2-sulfonamide], the EC50 is 0.22 µM.

On to `C[C@H](c1ncc(Cl)cn1)[C@H](C)S(=O)(=O)Nc1nnc([C@@H]2COCCO2)n1C1CCOCC1` (single isomer, unassigned) [Example 245.0, (2S,3R)-3-(5-chloro-2-pyrimidinyl)-N-(5-((2R)-1,4-dioxan-2-yl)-4-(tetrahydro-2H-pyran-4-yl)-4H-1,2,4-triazol-3-yl)-2-butanesulfonamide or (2S,3R)-3-(5-chloro-2-pyrimidinyl)-N-(5-((2S)-1,4-dioxan-2-yl)-4-(tetrahydro-2H-pyran-4-yl)-4H-1,2,4-triazol-3-yl)-2-butanesulfonamide], for which the EC50 is 0.62 µM.

For `C[C@H](c1ncc(Cl)cn1)[C@H](C)S(=O)(=O)Nc1nnc([C@@H]2COCCO2)n1C1CCOCC1` (single isomer, unassigned) [Example 246.0, (2S,3R)-3-(5-chloro-2-pyrimidinyl)-N-(5-((2R)-1,4-dioxan-2-yl)-4-(tetrahydro-2H-pyran-4-yl)-4H-1,2,4-triazol-3-yl)-2-butanesulfonamide or (2S,3R)-3-(5-chloro-2-pyrimidinyl)-N-(5-((2S)-1,4-dioxan-2-yl)-4-(tetrahydro-2H-pyran-4-yl)-4H-1,2,4-triazol-3-yl)-2-butanesulfonamide], the half-maximal effective concentration (EC50) was over 4.2 µM.

With `CO[C@H](c1ncc(Cl)cn1)[C@H](C)S(=O)(=O)Nc1nnc([C@@H]2COCCO2)n1C1CCOCC1` (single isomer, unassigned) [Example 247.0, (1R,2S)-1-(5-chloro-2-pyrimidinyl)-N-(5-((2R)-1,4-dioxan-2-yl)-4-(tetrahydro-2H-pyran-4-yl)-4H-1,2,4-triazol-3-yl)-1-methoxy-2-propanesulfonamide or (1R,2S)-1-(5-chloro-2-pyrimidinyl)-N-(5-((2S)-1,4-dioxan-2-yl)-4-(tetrahydro-2H-pyran-4-yl)-4H-1,2,4-triazol-3-yl)-1-methoxy-2-propanesulfonamide], the half-maximal effective concentration (EC50) is 0.24 µM.

As to `CO[C@H](c1ncc(Cl)cn1)[C@H](C)S(=O)(=O)Nc1nnc([C@@H]2COCCO2)n1C1CCOCC1` (single isomer, unassigned) [Example 248.0, (1R,2S)-1-(5-chloro-2-pyrimidinyl)-N-(5-((2R)-1,4-dioxan-2-yl)-4-(tetrahydro-2H-pyran-4-yl)-4H-1,2,4-triazol-3-yl)-1-methoxy-2-propanesulfonamide or (1R,2S)-1-(5-chloro-2-pyrimidinyl)-N-(5-((2S)-1,4-dioxan-2-yl)-4-(tetrahydro-2H-pyran-4-yl)-4H-1,2,4-triazol-3-yl)-1-methoxy-2-propanesulfonamide], the EC50 amounted to 0.00058 µM.

As for `COCC(COC)n1c(NS(=O)(=O)[C@@H](C)[C@H](OC)c2ncc(Cl)cn2)nnc1[C@@H]1COCCO1` (single isomer, unassigned) [Example 250.0, (1R,2S)-1-(5-chloro-2-pyrimidinyl)-N-(4-(1,3-dimethoxy-2-propanyl)-5-((2R)-1,4-dioxan-2-yl)-4H-1,2,4-triazol-3-yl)-1-methoxy-2-propanesulfonamide or (1R,2S)-1-(5-chloro-2-pyrimidinyl)-N-(4-(1,3-dimethoxy-2-propanyl)-5-((2S)-1,4-dioxan-2-yl)-4H-1,2,4-triazol-3-yl)-1-methoxy-2-propanesulfonamide], the EC50 amounted to 0.048 µM.

Regarding `COCC(COC)n1c(NS(=O)(=O)[C@@H](C)[C@H](OC)c2ncc(Cl)cn2)nnc1[C@@H]1COCCO1` (single isomer, unassigned) [Example 251.0, (1R,2S)-1-(5-chloro-2-pyrimidinyl)-N-(4-(1,3-dimethoxy-2-propanyl)-5-((2R)-1,4-dioxan-2-yl)-4H-1,2,4-triazol-3-yl)-1-methoxy-2-propanesulfonamide or (1R,2S)-1-(5-chloro-2-pyrimidinyl)-N-(4-(1,3-dimethoxy-2-propanyl)-5-((2S)-1,4-dioxan-2-yl)-4H-1,2,4-triazol-3-yl)-1-methoxy-2-propanesulfonamide], the EC50 amounted to 0.75 µM.

`COc1cccc(OC)c1-n1c(NS(=O)(=O)[C@H](C)[C@H](OC(C)C)c2cn3ccccc3n2)nnc1[C@H]1COCCO1` (single isomer, unassigned) [Example 266.0, (1R,2R)—N-(4-(2,6-dimethoxyphenyl)-5-((S)-1,4-dioxan-2-yl)-4H-1,2,4-triazol-3-yl)-1-(imidazo[1,2-a]pyridin-2-yl)-1-isopropoxypropane-2-sulfonamide or (1S,2S)—N-(4-(2,6-dimethoxyphenyl)-5-((S)-1,4-dioxan-2-yl)-4H-1,2,4-triazol-3-yl)-1-(imidazo[1,2-a]pyridin-2-yl)-1-isopropoxypropane-2-sulfonamide]: the EC50 was 0.15 µM.

Consider `COc1cccc(OC)c1-n1c(NS(=O)(=O)[C@@H](C)[C@H](C)c2ccc(Cl)cn2)nnc1[C@@H]1COCCO1` (single isomer, unassigned) [Example 267.0, (2S,3R)-3-(5-chloropyridin-2-yl)-N-(4-(2,6-dimethoxyphenyl)-5-((R)-1,4-dioxan-2-yl)-4H-1,2,4-triazol-3-yl)butane-2-sulfonamide or (2S,3R)-3-(5-chloropyridin-2-yl)-N-(4-(2,6-dimethoxyphenyl)-5-((S)-1,4-dioxan-2-yl)-4H-1,2,4-triazol-3-yl)butane-2-sulfonamide], for which the EC50 came out at 0.0021 µM.

On to `COc1cccc(OC)c1-n1c(NS(=O)(=O)[C@@H](C)[C@H](C)c2ccc(Cl)cn2)nnc1[C@@H]1COCCO1` (single isomer, unassigned) [Example 268.0, (2S,3R)-3-(5-chloropyridin-2-yl)-N-(4-(2,6-dimethoxyphenyl)-5-((R)-1,4-dioxan-2-yl)-4H-1,2,4-triazol-3-yl)butane-2-sulfonamide or (2S,3R)-3-(5-chloropyridin-2-yl)-N-(4-(2,6-dimethoxyphenyl)-5-((S)-1,4-dioxan-2-yl)-4H-1,2,4-triazol-3-yl)butane-2-sulfonamide], for which the EC50 was found to be 0.0019 µM.

For `COc1cccc(OC)c1-n1c(NS(=O)(=O)[C@@H](C)[C@H](C)c2ncc(C)cn2)nnc1[C@@H]1CCCN(C)C1` (single isomer, unassigned) [Example 269.0, (2S,3R)-N-(4-(2,6-dimethoxyphenyl)-5-((R)-1-methylpiperidin-3-yl)-4H-1,2,4-triazol-3-yl)-3-(5-methylpyrimidin-2-yl)butane-2-sulfonamide or (2S,3R)-N-(4-(2,6-dimethoxyphenyl)-5-((S)-1-methylpiperidin-3-yl)-4H-1,2,4-triazol-3-yl)-3-(5-methylpyrimidin-2-yl)butane-2-sulfonamide], the EC50 turned out to be 0.42 µM.
